The test relates to WistarF/Han (WF) rats. As to the kind of experiment: Social interaction (SI) test with Y1R antagonist pre-treatment (Example 4). The class given is in vivo. The settings on record: i.c.v., isoleucyl thiazolidine 50nmol and/or NPY 0.8nmol, without antagonist; Fig. 10. The protocol: Animals. Male WistarF/Han (WF) rats (Central Animal Laboratory, Hannover Medical School, Hannover, Germany, see http://www.mh-hannover.de/institut/tierlabor/wf.htm for details), weighing 330±31 g±SD, were housed in a sound-proof, temperature controlled (24.0±0.5°C) room under specific pathogen free conditions with a 12/12h dark/light cycle (lights on at 07.00 with illumination level of 80 Lux). Food (Altromin lab chow pellets) and tap water were available ad libitum. Under ketamine/xylasine (100/5 mg/kg, i.p.) anesthesia, the rats were fixed in a Kopf stereotaxic frame and implanted with cannulae (Plastic One, Inc., Roanoke, VA, USA) above the lateral ventricle. All research and animal care procedures were approved by the Lower Saxony district government (Hannover, Germany) and followed principles described in the European Community's Council Directive of 24 November 1986 (86/609/EEC).
Surgery and i.c.v. application. […]
Animals were randomly divided into eight experimental groups (n=6-8/group), which completed one SI test of anxiety: (1) aCSF+aCSF+aCSF; (2) BIBP+aCSF+aCSF; (3) aCSF+isoleucyl thiazolidine+aCSF; (4) BIBP+isoleucyl thiazolidine+aCSF; (5) aCSF+aCSF+NPY; (6) BIBP+aCSF+NPY; (7) aCSF+P32/89+NPY; (8) BIBP+isoleucyl thiazolidine+NPY. […] The time spent in active social interaction (SI-time), 1h, and 12h food-intake were measured. […]
Social interaction (SI) test. […] Behavior was monitored using a video camera placed above the field inside the testing/isolation box. The SI behavior of both rats was recorded on-line from a monitor placed outside on top of the box. The following parameters were scored by an observer (HPN) unaware of the substrain of rats: duration of time spent in sniffing, following, crawling under and over other rats, but not passive body contact (resting, sleeping). […]
Statistical analysis. Data obtained from the measures SI time and 1h food intake were analyzed by one-way (factor: "treatment") ANOVA. […]

On to `CCC(C)C(N)C(=O)N1CCSC1` (stereo not shown) [isoleucyl thiazolidine], for which the “anxiolytic-like effect in the SI test (SI-time)” value is recorded as “acts not anxiolytic-like”.

For the origin of these results see patent EP1891948A1, “Treatment of neurological and neuropsychological disorders” (Probiodrug AG, priority 2000, dated 2002).
